# Patent US20110124588A1, “SYNERGISTIC ACTIVE INGREDIENT COMBINATIONS” (Bayer Cropscience AG, priority 2008, published 2011)
# Like-named read-outs stand apart in the source and are kept apart here.
# Experiments:
# Phaedon cochleariae = Phaedon cochleariae larvae test (sprayed cabbage leaves); type: in vivo, mustard beetle (Phaedon cochleariae) larvae; conditions: single active compound; for pest or weed control at 20 g/ha / pest or weed control at 0.8 g/ha / pest or weed control at 100 g/ha / pest or weed control at 0.16 g/ha / pest or weed control at 4 g/ha: Phaedon cochleariae
# Description: (§1) If the actual kill rate exceeds the calculated value, the kill of the combination is superadditive, i.e. a synergistic effect is present. In this case, the actually observed kill rate must exceed the value calculated using the above formula for the expected kill rate (E).
# Solvents: 78 parts by weight of acetone • • 1.5 parts by weight of dimethylformamide Emulsifier: 0.5 part by weight of alkylaryl polyglycol ether
# After the desired period of time, the kill in % is determined 100% means that all beetle larvae have been killed; 0% means that none of the beetle larvae have been killed. The kill rates determined are entered into Colby's formula.
# Myzus persicae = Myzus persicae test (spray treatment of infested cabbage leaves); type: in vivo, green peach aphid (Myzus persicae); conditions: for pest or weed control at 0.8 g/ha / pest or weed control at 4 g/ha / pest or weed control at 0.032 g/ha / pest or weed control at 0.16 g/ha / pest or weed control at 0.0064 g/ha: Myzus persicae
# Description: as §1
# (§2) solvents: 78 parts by weight of acetone • • 1.5 parts by weight of dimethylformamide emulsifier: 0.5 part by weight of alkylaryl polyglycol ether
# After the desired period of time, the kill in % is determined 100% means that all aphids have been killed; 0% means that none of the aphids have been killed. The kill rates determined are entered into Colby's formula.
# Spodoptera frugiperda = Spodoptera frugiperda larvae test (sprayed cabbage leaves); type: in vivo, army worm (Spodoptera frugiperda) larvae
# Excerpt: The expected activity of a given combination of two active compounds can be calculated as follows, according to S. R. Colby, Weeds 15 (1967), 20-22:
# X is the kill rate, expressed as a percentage of the untreated control, when employing active compound A at an application rate of m g/ha or in a concentration of m ppm, Y is the kill rate, expressed as a percentage of the untreated control, when employing active compound B at an application rate of n g/ha or in a concentration of n ppm and E is the kill rate, expressed as a percentage of the untreated control, when employing active compounds A and B at application rates of m and n g/ha or in a concentration of m and n ppm, then
# as §1, §2
# To produce a suitable preparation of active compound, 1 part by weight of active compound is mixed with the stated amounts of solvents and emulsifier, and the concentrate is diluted with emulsifier-containing water to the desired concentration.
# Cabbage leaves (Brassica oleracea) are treated by spraying with the active compound preparation of the desired concentration and are populated with larvae of the army worm (Spodoptera frugiperda) while the leaves are still moist.
# After the desired period of time, the kill in % is determined 100% means that all caterpillars have been killed; 0% means that none of the caterpillars have been killed. The kill rates determined are entered into Colby's formula.
# [1] = 48 h, 2 d, read-out: Kill in % after 2 d
# [2] = 144 h, 0.8 g/ha, 6 d, read-out: Kill in % after 6 d
# [3] = 144 h, 6 d, read-out: Kill in % after 6 d
# [4] = 24 h, read-out: Kill in % after 1 d
# [5] = 144 h, read-out: Kill in % after 6 d
# [6] = Spodoptera frugiperda, 144 h, read-out: Kill in % after 6 d
# [7] = Spodoptera frugiperda, 48 h, read-out: Kill in % after 2 d
# [8] = 48 h, 4 g/ha, 2 d, read-out: Kill in % after 2 d
# [9] = 144 h, 4 g/ha, 6 d, read-out: Kill in % after 6 d
# [10] = single active compound, 0.8 g/ha, 6 d
molecule,measurement,setting,value
N#CCNC(=O)c1cnccc1C(F)(F)F [flonicamid],pest or weed control at 20 g/ha,Phaedon cochleariae; [1],0%
same,pest or weed control at 0.8 g/ha,Phaedon cochleariae; [2],0%
same,pest or weed control at 100 g/ha,Phaedon cochleariae; [3],0%
same,pest or weed control at 0.8 g/ha,Myzus persicae; [4],0%
same,pest or weed control at 4 g/ha,Myzus persicae; [4],20%
same,pest or weed control at 0.032 g/ha,Myzus persicae; [5],0%
"Cc1cc(C(F)(C(F)(F)F)C(F)(F)F)ccc1NC(=O)c1cccc(I)c1C(=O)NC(C)(C)CS(C)(=O)=O [flubendiamid, flubendiamide]",pest or weed control at 20 g/ha,Phaedon cochleariae; [3],50%
same,pest or weed control at 0.8 g/ha,Spodoptera frugiperda; [6],67%
same,pest or weed control at 0.8 g/ha,Myzus persicae; [4],0%
same,pest or weed control at 4 g/ha,Myzus persicae; [4],0%
O=C(NC(=O)c1c(F)cccc1F)Nc1ccc(Oc2ccc(C(F)(F)F)cc2Cl)cc1F [flufenoxuron],pest or weed control at 100 g/ha,Phaedon cochleariae; [3],0%
same,pest or weed control at 100 g/ha,Spodoptera frugiperda; [7],17%
same,pest or weed control at 0.8 g/ha,Spodoptera frugiperda; [6],67%
CC1(C)[C@H](/C=C(\Cl)C(F)(F)F)[C@@H]1C(=O)O[C@H](C#N)c1cccc(Oc2ccccc2)c1 [gamma-cyhalothrin],pest or weed control at 0.16 g/ha,Phaedon cochleariae; [3],0%
same,pest or weed control at 0.16 g/ha,Spodoptera frugiperda; [6],17%
same,pest or weed control at 0.032 g/ha,Myzus persicae; [5],0%
O=[N+]([O-])/N=C1\NCCN1Cc1ccc(Cl)nc1 [imidacloprid],pest or weed control at 4 g/ha,Phaedon cochleariae; [8],0%
same,pest or weed control at 4 g/ha,Phaedon cochleariae; [9],0%
same,pest or weed control at 20 g/ha,Phaedon cochleariae; [3],50%
same,pest or weed control at 0.16 g/ha,Myzus persicae; [4],50%
O=[N+]([O-])/N=C1\NCCN1Cc1cnc(Cl)s1 [imidaclothiz],pest or weed control at 4 g/ha,Phaedon cochleariae; [9],0%
COC(=O)N(C(=O)N1COC2(C(=O)OC)Cc3cc(Cl)ccc3C2=N1)c1ccc(OC(F)(F)F)cc1 (stereo not drawn) [indoxacarb],pest or weed control at 4 g/ha,Phaedon cochleariae; [8],0%
same,pest or weed control at 20 g/ha,Phaedon cochleariae; [1],33%
same,pest or weed control at 0.8 g/ha,Myzus persicae; [5],0%
CC1(C)C(/C=C(\Cl)C(F)(F)F)C1C(=O)OC(C#N)c1cccc(Oc2ccccc2)c1 (stereo not drawn) [lambda-cyhalothrin],pest or weed control at 0.16 g/ha,Phaedon cochleariae; [3],17%
same,pest or weed control at 0.8 g/ha,Spodoptera frugiperda; [6],67%
same,pest or weed control at 0.0064 g/ha,Myzus persicae; [5],0%
same,pest or weed control at 0.032 g/ha,Myzus persicae; [5],0%
O=C(NC(=O)c1c(F)cccc1F)Nc1cc(Cl)c(OC(F)(F)C(F)C(F)(F)F)cc1Cl (stereo not drawn) [lufenuron],pest or weed control at 100 g/ha,Phaedon cochleariae; [1],0%
same,pest or weed control at 100 g/ha,Spodoptera frugiperda; [7],0%
COc1cccc(C(=O)NN(C(=O)c2cc(C)cc(C)c2)C(C)(C)C)c1C [methoxyfenozide],pest or weed control at 20 g/ha,Phaedon cochleariae; [3],0%
same,pest or weed control at 4 g/ha,Spodoptera frugiperda; [6],50%
same,pest or weed control at 0.16 g/ha,Myzus persicae; [5],0%
same,pest or weed control at 0.8 g/ha,Myzus persicae; [5],0%
CCCSP(=O)(OCC)Oc1ccc(Br)cc1Cl (stereo not drawn) [profenofos],pest or weed control at 20 g/ha,Phaedon cochleariae; [1],50%
FC(F)(F)c1ccc(OCCCOc2c(Cl)cc(OCC=C(Cl)Cl)cc2Cl)nc1 [pyridalyl],pest or weed control at 20 g/ha,Spodoptera frugiperda; [7],67%
N#C/N=C1\SCCN1Cc1ccc(Cl)nc1 [thiacloprid],pest or weed control at 20 g/ha,Phaedon cochleariae; [3],50%
same,pest or weed control at 20 g/ha,Spodoptera frugiperda; [6],50%
same,pest or weed control at 0.16 g/ha,Myzus persicae; [4],0%
CN1COCN(Cc2cnc(Cl)s2)/C1=N/[N+](=O)[O-] [thiamethoxam],pest or weed control at 0.8 g/ha,Phaedon cochleariae; [2],0%
same,pest or weed control at 0.0064 g/ha,Myzus persicae; [5],0%
same,pest or weed control at 0.032 g/ha,Myzus persicae; [5],0%
O=C(NC(=O)c1ccccc1Cl)Nc1ccc(OC(F)(F)F)cc1 [triflumuron],pest or weed control at 0.8 g/ha,Spodoptera frugiperda; [6],33%
"CC1(C)C(C=C(Cl)Cl)C1C(=O)OC(C#N)c1ccc(F)c(Oc2ccccc2)c1 (stereo not drawn) [β-cyfluthrin, betacyfluthrin]",pest or weed control at 0.16 g/ha,Phaedon cochleariae; [3],0%
same,pest or weed control at 0.16 g/ha,Spodoptera frugiperda; [6],0%
same,pest or weed control at 0.0064 g/ha,Myzus persicae; [5],0%
same,pest or weed control at 0.032 g/ha,Myzus persicae; [5],0%
milbemectin,Kill in % after 6 d,"Phaedon cochleariae; 0.8 g/ha, 6 d",0%
same,Kill in % after 6 d,Spodoptera frugiperda; [10],0%
pyridaben,Kill in % after 6 d,"Phaedon cochleariae; 4 g/ha, 6 d",50%
same,Kill in % after 6 d,Myzus persicae; [10],0%
